2 compounds from patent publication EP2386565A2, “Compounds and methods to inhibit or augment an inflammatory response” (Cambridge Enterprise Ltd., priority 1999, dated 2000) can be followed below.

The subject of assay [1] is T cell-dependent and T cell-independent antibody response. Description: Antibody response after immunization with sheep red blood cells. Set-up: species or system mice. The conditions noted are these: mouse, in vivo.
Assay [2] has as its system IL8 induced THP-1 migration. Description: THP-1 trans-well migration assay, IL8 as chemoattractant. It is filed as cell-based, human. On the procedure: To determine whether an agent inhibits a chemokine-induced activity, such as macrophage recruitment, varying amounts of the agent are mixed with cells in the presence of a known chemoattractant. For example, a range of known concentrations of an agent, e.g., a chemokine peptide, is incubated with a defined number (e.g., 10^4 - […]) of human THP-1 monocyte cells in individual wells of the top compartment of a trans-well plate. Chemokine (such as MCP-1, MIP1α, IL8 or SDF-1α), at a concentration known to cause significant migration of THP-1 cells in the trans-well migration assay, is placed in the lower compartment (Figure 1). […] A standard curve consisting of a two-fold dilution series of THP-1 cells (in 29 µl) is prepared to accurately quantify the number of cells that have migrated. […] Absorbance of converted dye is measured at a wavelength of 595 nm using an ELISA plate reader. The number of migrated cells in each well is then determined by interpolation of the standard curve (see also Imai et al.,J. Biol. Chem., 272, 15036 (1997)). […]
After incubation, the cells were gently removed from the top of the filter with a pipette, 20 µl of 20 mM EDTA in PBS was added into each top well, and the mixture was incubated for 20 minutes at 4°C. […] A standard curve was prepared to accurately quantify the number of THP-1 cells that had migrated. […]

Assay [3] has as its system TGFβ1 induced human monocyte migration. The experiment in a line: Migration of freshly prepared peripheral blood monocytes, TGFβ1. It is filed as cell-based. On the procedure:
Agents may also be screened in a chemotactic assay which employs human neutrophils, eosinophils, mast cells, basophils, platelets, lymphocytes or monocytes. For monocytes, 9 mls of fresh blood are transferred to a tube containing 1 ml of 3.8% sodium citrate, and left at room temperature for 15 minutes. Five mls of this anti-coagulated blood are carefully layered over 3.5 ml Polymorphprep® (Nycomed Pharma, Oslo), and centrifuged at 500 g for 35 minutes per the manufacturer's instructions. The top band at the sample/medium interface contains monocytes. The monocytes are carefully removed with a glass pipette, and reconstituted to the original volume (5 ml). The cells are washed with PBS plus 10% fetal calf serum, and centrifuged at 400 g for 10 minutes. The washing step is repeated three times before the cells are counted. Cells are resuspended at 1 × 10^7 cells/ml in RPMI-1640 + 10% fetal calf serum (FCS). The monocytes are cultured for two days at 37°C in a humidified atmosphere of 5% CO2-
On day 2, the cells are counted, spun down, and reconstituted to 1 × 10^7 cells/ml in Gey's balanced salt solution + 1 mg/ml bovine serum albumin (BSA). […]

Positions of bridges follow the written chain, without caps; N, C: chain ends. Non-standard residues stand in square brackets, D forms with d. Residues, ends and D or L forms follow the SMILES beside them.

Consider `CC[C@@H](C)[C@H]1NC(=O)[C@@H](CCC(N)=O)NC(=O)[C@H](N)CSSC[C@H](C(N)=O)NC(=O)[C@@H](CC(C)C)NC(=O)[C@@H](CC(=O)O)NC(=O)[C@H]2CCCN2C(=O)[C@@H](CCCCN)NC(=O)[C@@H](CCC(N)=O)NC(=O)[C@@H](CCCCN)NC(=O)[C@@H](Cc2c[nH]c3ccccc23)NC1=O` (H-[dC][dQ][dI][dW][dK][dQ][dK][dP][dD][dL][dC]-NH2; disulfide 1-11), for which, in assay [1], the “T cell-dependent antibody response (in words)” value was “prevented”.

With `CC[C@H](C)[C@H](NC(=O)[C@H](C)NC(=O)[C@H](CC(=O)O)NC(=O)[C@@H]1CCCN1C(=O)[C@H](CCC(N)=O)NC(=O)[C@H](C)N)C(=O)N[C@@H](CC(N)=O)C(=O)N[C@@H](C)C(=O)N1CCC[C@H]1C(=O)N[C@H](C(=O)N[C@H](C(=O)N[C@@H](CS)C(=O)N[C@@H](CS)C(=O)O)[C@@H](C)O)C(C)C` [Peptide 1] (H-AQPDAINAPVTCC-OH; N-terminus and C-terminus assumed), in assay [2] (THP-1 migration, agent at 100 µM, n.s. or dash = no statistically significant inhibition), the “% inhibition at 100 µM versus IL8” value is given as “n.s”. The “ED50 (µM) versus IL8” value in assay [2] (inhibition of THP-1 migration, n.s. = not statistically significant) is on record as “n.s”. Besides, in assay [3], the “% inhibition at 100 µM versus TGFβ1” value is “n.s”.
